Molecules are shown by their SMILES.

Data set [1] concerns IL-4, IL-6 plus IL-13 stimulated THP-1 cells (M2-like macrophages). The data set is described as follows: Reprogramming of M2-polarized THP-1 macrophages, marker mRNA by qPCR. The format is cell-based, human. How it is done:
THP-1 cells were initially selected as a model system because this human monocytic cell line is known to acquire an M2-like phenotype and produce significant quantities of anti-inflammatory cytokines upon stimulation with IL-4, IL-6 plus IL-13.
THP-1 cells were seeded into 96-well plates at a density of 60,000 cells/well. Cells were differentiated into unpolarized macrophages by 48 hours incubation with 200 nM PMA followed by 24 hours incubation in fresh RPMI medium. […] Cultures were maintained at 37° C. in a humidified 5% CO2 incubator.
Total RNA was isolated from 1×10^5-2×10^5 macrophages using a Quick-RNATM MicroPrep kit (Zymo Research, Irvine, CA) according to the manufacturer-recommended protocol. […] IL-6, CXCL10, IFNα, IFN-γ and CD86 were used as markers for an M1 phenotype, while CCL18, CD206, CD163 and Arg1 were employed as markers for the M2 phenotype. IL-1β, PDGFβ, MMP9 and TIMP 3 were measured as indicators of an anti-inflammatory phenotype. IRAK-4 was used as an indicator of TLR7 stimulation. To control for specificity of the amplification products, a melting curve analysis was performed. […] Each sample was analyzed independently in triplicate for each marker.
Primarily, human monocytic (THP-1) cells were induced to the M2-like phenotype using the methods and materials previously described. In particular, THP-1 cells were seeded into 96-well plates at a density of 60,000 cells/well. Cells were differentiated into unpolarized macrophages by 48h incubation with 200 nM PMA followed by 24 hours incubation in fresh RPMI medium. The resulting macrophages were polarized to an M2-like phenotype by incubation with 20 ng/ml IL-4, 20 ng/ml IL-13, and 5 ng/mL IL-6 for 48h. Cultures were maintained at 37° C. in a humidified 5% CO2 incubator.
In addition to the nonconjugated TLR7 agonist, conjugated compounds of the present disclosure were likewise evaluated. […] The cells were subsequently harvested for gene analysis by qPCR and the relative expression of CCL18 (FIG. 14A), CD206 (FIG. 14B), and IL-1β (FIG. 14C) analyzed.
On the technique in general: Quantitative PCR measures a nucleic acid by following its amplification.

Data set [2] has as its system M2-induced THP-1 macrophages. The data set is described as follows: Secreted CCL18 and IL-1β in THP-1 macrophage supernatants by ELISA. The format is cell-based, human. How it is done:
FIGS. 6A-6D show graphical data representative of various marker levels measured from M2-induced THP-1 macrophages treated with different concentrations of drugs for 48 hours (FIGS. 6A and 6B) or for 2 hours, then displaced with fresh medium and cultured for the remaining 46 hours (FIGS. 6C and 6D). In both cases, cell supernatants were collected and secreted CCL18 protein and IL-1β was detected by ELISA.
CCL18 and IL-1β were quantified in induced THP-1 cell supernatants using a human DuoSet ELISA Development System (R&D Systems Europe, Abingdon, UK; #DY394-05) and an IL-1 beta Human ELISA Kit (Thermo Fisher Scientific, Waltham, MA; #BMS224-2) as described by manufactures. BALF samples were analyzed for mouse IFN-γ using ELISA MAX™ Deluxe (Biolegend, San Diego, CA; #430804).
On the technique in general: In an ELISA, binding on a coated surface is turned into a signal by an enzyme label.

Data set [3] is described as follows: Stability during incubation in culture media. The format is physicochemical. To be noted: 37° C. in the culture media, 48 hours. How it is done: Indeed, Compound 1B retained the original structure after 48 hours incubation.
A further data set deals with BM-induced mice. How it is done: Studies were also performed to determine if macrophages in pulmonary fibrotic lungs might be specifically targeted with folate-linked drugs in vivo. […] (The BM model is widely regarded to be helpful in terms of enabling mechanistic investigations relevant to fibrogenesis in an in vivo context.)
More specifically, eight-week-old C57BL6 male mice from Charles River (average weight 22 g to 25 g) were housed under pathogen-free conditions at room temperature (22° C.) under a 12 hours light-dark cycle. Mice were placed on a folate deficient chow (Envigo Teklad Global Rat Food Pellets) for 1 week prior to the BM or PBS instillation. Fresh water and folate-deficient diet were freely available. All animal procedures were approved by the Purdue Animal Care and Use Committee in accordance with National Institute of Health guidelines.
Thereafter, the mice were anesthetized with ketamine/xylazine and the necks of the mice were shaved using hair remover lotion and then sterilized with 70% alcohol. A small incision was made on the neck to visualize the trachea. Mice were positioned at a 75-degree angle and injected intratracheally with 100 μL sterile PBS or BM (Cayman Chemicals, Ann Arbor, MI; #13877) dissolved in PBS (0.75 mg/kg) using a 1 cc syringe with 26 G needle. Body weights were monitored every other day throughout the experiment.
After 2 hours, mice were sacrificed using CO2 asphyxiation and an incision in the skin from the abdomen to neck was immediately made to expose the lungs and trachea. A small cut in the upper trachea was then introduced for insertion of a blunted, 22-gauge needle, and a nylon string was tied around the trachea to seal the trachea around the needle. The trachea (containing the inserted needle), lungs and heart were then removed en masse by carefully cutting the connective tissue beneath the lungs, and the bronchus of left lung was clipped with a Dieffenbach vessel clip. The right lung was injected with PBS and aspirated 3 times using a 1 ml syringe, and the recovered lavage fluid was saved on ice.
Bronchoalveolar lavage fluid (BALF) was then analyzed to determine how the targeted TLR7 agonist works. BALF samples were centrifuged at 1500 rpm for 5 min at 4° C. and the supernatant was aliquoted and stored at −80° C. for cytokine/chemokine analyses. Cell pellets were resuspended and cultured in pre-warmed RPMI 1640 medium for 2 hours and then washed 3× with pre-warmed PBS prior to harvesting for qPCR assay. The right lung was then tied with a nylon string and used for subsequent analysis of hydroxyproline content. The left lung was inflated with 1 ml PBS using the inserted syringe and transferred to 10% formalin solution for subsequent histological analyses.
Lobes of the right lung collected above were weighed, placed in a pressure-tight vial (Supelco Inc., Bellefonte, PA; #27003), and hydrolyzed with 6N HCl (10 ml/g, v/w) in a sand bath at 120° C. for 3.5 hours. The hydrolyzed solution was cooled at 4° C. for 15 min and transferred to a 1.5 ml Eppendorf tube prior to centrifugation at 12,000 rcf for 15 min at 4° C. Supernatant was carefully collected, aliquoted and used for hydroxyproline (HYP) analysis.
For the subsequent HYP analysis, 10 μl of sample was transferred into a 96-well plate and neutralized with 10 μl of 5.3 M sodium hydroxide solution. Isopropanol (40 μl) was then added to each well followed by 20 μl of oxidation buffer and the mixture was incubated on a shaker at room temperature for 5 min. […]

For data set [4], the system named is M2-induced human monocyte-derived macrophages. The data set is described as follows: Reprogramming of M2-induced human monocyte-derived macrophages. The format is cell-based. To be noted: 100 nM, 2 hours + 46 hours, excess FA-glucosamine. How it is done:
Changes in both sets of cytokines were inhibited by blockade of unoccupied folate receptors with excess FA-glucosamine (2+46h, competition).

The subject of the next data set is healthy mice. Description: Plasma cytokine levels in healthy mice after tail vein injection. The format is in vivo. How it is done: (FIGS. 20A-C) Measurement of plasma IL-6 (FIG. 20A), IFNα (FIG. 20B) and TNFα (FIG. 20C) (n=3). (FIGS. 20D-F). The effect of drug concentration on plasma levels of IL-6 (FIG. 20D), IFNα (FIG. 20E), and TNFα (FIG. 20F) was determined at 1.5h, 1h, or 1h after treatment, respectively (n=2) (FIG. 20G).
(FIGS. 36C and 36D). The effect of drug on plasma levels of IL-6 (FIG. 36C) and TNFα (FIG. 36D) was determined at 1 hour or 1.5 hours after treatment.

The test system of the next data set is fibrotic lungs. Description: Staining of healthy and fibrotic lung sections (DAPI, anti-F4/80, anti-CD206). The format is in vivo, mice. To be noted: differences between treated groups. An excerpt: Sections from the same healthy and fibrotic lungs described in FIG. 6 were stained with DAPI (nuclei; blue), anti-F4/80 (macrophages; red), and anti-CD206 (M2 macrophage marker; green), and images were obtained with a Leica Versa 8 whole-slide scanner as described in Methods (n=2). Scale bars, 100 μm.

Setting [5] is: 2 hours with drug, then drug-free medium.
Setting [6] is: incubated continuously for 48 hours, ELISA.

For `CCCCc1nc2c(N)nc3ccccc3c2n1CC(C)(C)OC(=O)OCCSSCC(NC(=O)CCC(NC(=O)c1ccc(NCc2cnc3nc(N)[nH]c(=O)c3n2)cc1)C(=O)O)C(=O)O` (centres unmarked) [Compound 1B], the “cancer/M2-type markers (CCL18, CD206, IL-1β, PDGFβ mRNA)” value in data set [1] (2 hours incubation, harvested immediately or after further 46 hours) is listed as “downregulated cancer/M2-type markers of macrophages more than Compound 1A”. Also, in data set [1] (setting [5]), the TNFα induction result is given as “dramatically improved” and the “potency in reprogramming relative to comparator” value is “superior potency relative to Compound 1A”. Further, the “M2 to M1 marker changes (FIGS. 3A-3F)” value in data set [1] (48 hours incubation, various concentrations) is “same qualitative changes were observed, only the magnitude of the impact of Compound 1B was somewhat reduced”. The “reduction of secreted CCL18 and IL-1β, comparison of compounds” value in data set [2] (drug exposure limited to 2 hours, then 46 hours fresh medium) is listed as “superior”. In data set [2] (setting [6]), the “secreted CCL18 polypeptide” value was “reductions” and the “secreted IL-1β polypeptide” value is listed as “reductions”. Moreover, the stability during incubation result in data set [3] was “remained stable”. Moreover, the “lung histology with increasing dose” value with BM-induced mice (0, 1, 3 or 10 nmoles) is given as “lung histology improved”. For the same molecule, the “hydroxyproline content of lung hydrolysates, order of efficacy by dose” value with BM-induced mice (0, 1, 3 or 10 nmoles every other day from day 10, day 21) is given as 10 nmol/mouse>3 nmol/mouse>1 nmol/mouse>0 nmol/mouse. For the same molecule, the “total number of BALF cells” value in the data set with BM-induced mice (different doses, day 21) is listed as “decreased in a dose-dependent manner”. The “collagen stain (Masson's trichrome)” value in the data set with BM-induced mice (tail vein injection) was “strongly suppressed”. In the data set with BM-induced mice (treated beginning on day 10), the “lung architecture (H&E staining)” value is reported as “lung architecture that resembles that of healthy mice”. For the same molecule, in data set [4], the “downregulation of biomarkers in presence of competitor” value was “blocked”. Besides, the “inflammatory cytokine release, dose comparison” value in the data set with healthy mice (effect of drug concentration, 1.5h, 1h or 1h after treatment) was “stimulates less inflammatory cytokine release than half the dose of Compound 1A”. For the same molecule, the “systemic cytokine release (plasma IL-6, IFNα, TNFα)” value in the data set with healthy mice (healthy mice, tail vein, 10 nmol) is “does not”. Besides, in the data set on fibrotic lungs, the “proinflammatory response in vivo (lung section staining)” value is “robust proinflammatory response”.
